Assays:
washed platelets [1] = experiment: Inhibitory effect on collagen-induced platelet aggregation (antagonistic activity), rat washed platelets; assay type: cell-based; details: 0.05 h, collagen 4 μg/ml as inducer, light transmission 3 minutes after inducer, read-out: Inhibition for Platelet Aggregation IC50
Experimental: (§1) From the abdominal artery of a male rat (Sprague-Dowley, 8 weeks old) was collected 10 ml of blood with a plastic syringe containing 1.5 ml of ACD (85 mM of sodium citrate, 70 mM of citric acid, 110 mM of glucose) and 20 μg of prostaglandin E1. The blood is placed in a plastic test tube, shaken moderately turning and centrifuged for 10 minutes at 160×g to give platelet rich plasma (PRP). To the prepared PRP was added apyrase (25 μg/ml) and the mixture was layered on 40% bovine serum albumin. The resulting mixture is centrifuged at 1200×g for 25 minutes. The platelet pellets suspended in a small amount of a buffer (137 mM of NaCl, 2.7 mM of KCl, 1.0 mM of MgCl2, 3.8 mM of NaH2 PO4, 3.8 mM of Hepes, 5.6 mM of glucose, 0.035% of bovine serum albumin, pH 7.35) was applied on 10 ml of Sephaose 2B column and eluted with such a buffer to prepare washed platelets.
(§2) The platelet aggregation reaction was measured by an aggregometer (NKK HEMA TRACER 1 MODEL PAT-6A.6M, Niko bioscience). In a measuring cuvette was placed 245 μl of the washed platelets of which platelet concentration was adjusted to 5×10^5 / μl and set in the aggregometer. The adjusted washed platelet was stirred (1000 rpm) at 37° C. and 3.8 μl of 0.1M of CaCl2 was added thereto. One minute later, 0.5 μl of a solution of a test compound in dimethylsulfoxide was added and 2 minutes later, 1 μl of collagen (Collagen reagent Horm®, HORMON-CHEMIE Munchen GMBH, final concentration 4 μg/ml) as an inducer for platelet aggregation was added. The platelet aggregation was monitored with an aggregometer in terms of the increase and decrease in light transmission.
Concentration of 50% inhibition was calculated from the inhibitory rate of aggregation (this correspondes to light transmission of a sample which is measured at 3 minutes after the addition of a platelet aggregating inducer, provided that light transmissions of the washed platelets and the buffer samples are taken as 0% and 100%, respectively.)

washed platelets [2] = experiment: Partial agonistic activity (shape change of rat platelets); assay type: cell-based; details: Platelet, decrease in light transmission by test compound itself, 50% of maximal agonistic activity of reference compound, read-out: Activity of Partial Agonist EC50
Experimental: as §1, §2
The measurement of partial agonistic activity was carried out according to the method shown for platelet aggregation. To the washed platelets was added 0.1M of CaCl2 and one minute later a test compound was added thereto. The decrease in light transmission caused by the test compound itself was measured to estimate the activity.

[3] = Acute toxicity, intravenous, mice; details: mouse, in vivo, male SclddY mice, tail vein injection in saline, mortality within 24 hours, Probit method
Experimental: Male SclddY mice (4-weekage, 23-27 g) were used. Each experimental group consists of 5 animals. After injecting the test compound dissolved in saline into a tial vein, the mortality within 24 hours was obtained as an LD50 value by the Probit method.

Compound	IC50 (washed platelets [1])	EC50 (washed platelets [2])	LD50 at 24 h [3]
O=C(O)CCC/C=C\[C@H]1[C@@H]2CC[C@@H](C2)[C@@H]1NS(=O)(=O)c1ccccc1 [Ia-c, (1R,2R,3S,4S)-sodium (5Z)-6-(3-phenylsulfonylaminobicyclo[2.2.1]hept-2-yl)-5-hexenoate]	6 nM	> 1000 nM	237 mg/kg
O=C(O)CCC/C=C\[C@H]1[C@@H]2CC[C@@H](C2)[C@@H]1NS(=O)(=O)c1ccc(O)cc1 [Ic-c, (1R,2R,3S,4S)-sodium (5Z)-6-[3-(4-hydroxyphenylsulfonylamino)bicyclo[2.2.1]hept-2-yl]-5-hexenoate]	6 nM	150 nM	–
O=S(=O)(N[C@H]1[C@H]2CC[C@H](C2)[C@@H]1/C=C\CCCc1nnn[nH]1)c1ccccc1 [If-c, (1R,2R,3S,4S)-3-phenylsulfonylamino-2-[(1Z)-5-(5-tetrazolyl)-1-pentenyl]bicyclo[2.2.1]heptane]	4 nM	> 1000 nM	209 mg/kg

More lines, in order of falling IC50 (washed platelets [1]), values ahead:

IC50 (washed platelets [1])	EC50 (washed platelets [2])	Compound	LD50 at 24 h [3]
6 nM	> 1000 nM	Cc1ccc(S(=O)(=O)N[C@H]2[C@H]3CC[C@H](C3)[C@@H]2/C=C\CCCC(=O)O)cc1 [Ib-c, (1R,2R,3S,4S)-sodium (5Z)-6-[3-(p-tolylsulfonylamino)bicyclo[2.2.1]hept-2-yl]-5-hexenoate]	–
5 nM	130 nM	O=C(O)CCC/C=C\[C@H]1[C@@H]2CC[C@@H](C2)[C@@H]1NS(=O)(=O)c1ccc(Br)cc1 [Id-c, (1R,2R,3S,4S)-sodium (5Z)-6-[3-(4-bromophenylsulfonylamino)bicyclo[2.2.1]hept-2-yl]-5-hexenoate]	–
5 nM	300 nM	O=C(O)CCC/C=C\[C@H]1[C@@H]2CC[C@@H](C2)[C@@H]1NS(=O)(=O)c1ccc(Cl)cc1 [Ie-c, (1R,2R,3S,4S)-sodium (5Z)-6-[3-(4-chlorophenylsulfonylamino)bicyclo[2.2.1]hept-2-yl]-5-hexenoate]	–
2 nM	1 nM	Cc1ccc(S(=O)(=O)N[C@H]2[C@H]3CC[C@H](C3)[C@@H]2C/C=C\CCCC(=O)O)cc1 [Rf. Compd., reference compound]	–
